Reference: EP4678638A1, “NEW E3 UBIQUITIN LIGASE LIGAND, PROTEIN DEGRADATION AGENT AND USE THEREOF” (priority 2023, dated 2024)

Target: T1, IRAK4 (Homo sapiens, UniProt Q9NWZ3)
T1 construct: evaluate the effects of the compounds of the present disclosure on the expression of target proteins in cells; endogenous in cells; host or cells: hPBMC
T1 sequence (Q9NWZ3 1-460): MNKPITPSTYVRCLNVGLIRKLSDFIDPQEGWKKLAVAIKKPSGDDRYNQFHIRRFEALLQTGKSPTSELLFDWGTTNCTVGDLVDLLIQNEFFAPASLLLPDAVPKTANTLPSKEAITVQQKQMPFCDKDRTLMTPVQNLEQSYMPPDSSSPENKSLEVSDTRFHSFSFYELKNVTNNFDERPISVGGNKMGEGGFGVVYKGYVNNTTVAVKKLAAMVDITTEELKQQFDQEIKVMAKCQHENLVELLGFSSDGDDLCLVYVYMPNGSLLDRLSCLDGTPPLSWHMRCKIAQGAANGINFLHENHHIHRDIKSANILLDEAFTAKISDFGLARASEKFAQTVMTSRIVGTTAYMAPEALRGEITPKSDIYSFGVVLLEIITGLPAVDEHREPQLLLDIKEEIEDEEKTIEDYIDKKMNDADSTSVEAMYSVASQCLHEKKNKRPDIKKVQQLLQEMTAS
Assay: Western blot degradation of IRAK4 (hPBMC)
Type: cell-based
Settings: Table D1
Experimental: Conventional Western blot assay was performed to evaluate the effects of the compounds of the present disclosure on the expression of target proteins in cells.
(1) Cell Seeding and Protein Harvesting: The selected cells were processed according to the cell seeding procedure and protein harvesting procedure in Table III-2. Table III-2 Cell Seeding and Protein Harvesting Procedures
(2) To the collected supernatant, 5X SDS sample loading buffer was added, followed by denaturation at 95°C for 5 minutes. The denatured samples were then separated by SDS-PAGE electrophoresis on a polyacrylamide gel. Proteins were transferred to a nitrocellulose membrane (0.45 µm NC membrane), blocked with blocking buffer at room temperature for 1 hour, and subjected to antibody incubation and development procedures according to the antibody manufacturer's instructions (Cell Signaling Technology).
Half-Maximal Degradation Concentration value (the drug concentration required for degrading proteins by 50%, abbreviated as DC50) reads method: comparing the grayscale values of Western blot bands from drug-treated samples with those from blank DMSO-treated controls, and identifying the drug concentration range at which the grayscale value is half that of the DMSO-treated control bands.
DC50 values can be calculated using ImageJ software to measure grayscale values of Western blot bands from drug-treated samples. The concentration-response curve is fitted to estimate the drug concentration corresponding to half the grayscale value.
Target protein remaining (%) refers to the percentage of target protein remaining in hPBMC cells after treatment with protein degrader compounds.
Calculation method for target protein remaining (%): Use ImageJ software to measure grayscale values of Western blot bands from drug (protein degrader)-treated samples. The grayscale value of drug-treated bands is divided by that of internal control protein bands, and the resulting quotient is normalized to obtain the relative percentage of remaining target protein after protein degrader treatment.
Target protein degradation rate (%) = 100% - target protein remaining (%).

| Structure (SMILES) | Degradation of substrate protein IRAK4 (substrate protein remaining %) |
| --- | --- |
| O=C1CCN(c2ccc(CN3CCC(n4cc(NC(=O)c5cnn6ccc(N7C[C@H]8C[C@@H]7CO8)nc56)c(C(F)F)n4)CC3)cn2)C(=O)N1 [GT-05054, 5-((1R,4R)-2-oxa-5-azabicyclo[2.2.1]heptan-5-yl)-N-(3-(difluoromethyl)-1-(1-((6-(2,4-dioxotetrahydropyrimidin-1(2H)-yl)pyridin-3-yl)methyl)piperidin-4-yl)-1H-pyrazol-4-yl)pyrazolo[1,5-a]pyrimidine-3-carboxamide] | A (A is defined as 0% ≤ substrate protein remaining % ≤ 80%) |
| CC(C)Nc1cc(-n2ccc3cc(C#N)cnc32)ncc1C(=O)NC1CCN(Cc2ccnc(C3CCC(=O)NC3=O)c2)CC1 (stereo not shown) [GT-07412, 6-(5-cyano-1H-pyrrolo[2,3-b]pyridin-1-yl)-N-(1-((2-(2,6-dioxopiperidin-3-yl)pyridin-4-yl)methyl)piperidin-4-yl)-4-(isopropylamino)nicotinamide] | A (A is defined as 0% ≤ substrate protein remaining % ≤ 80%) |
| O=C1CCC(c2ccc(CN3CCC(n4cc(NC(=O)c5coc(-c6ccnc(NCC7CC7)c6)n5)c(C(F)F)n4)CC3)cc2F)C(=O)N1 (stereo not shown) [GT-04176, 2-(2-((cyclopropylmethyl)amino)pyridin-4-yl)-N-(3-(difluoromethyl)-1-(1-(4-(2,6-dioxopiperidin-3-yl)-3-fluorobenzyl)piperidin-4-yl)-1H-pyrazol-4-yl)oxazole-4-carboxamide] | A (A is defined as 0% ≤ substrate protein remaining % ≤ 80%) |
| COc1cc2nn(C3CCN(Cc4ccnc(C5CCC(=O)NC5=O)c4)CC3)cc2cc1NC(=O)c1cccc(C(F)(F)F)c1 (stereo not shown) [GT-07418, N-(2-(1-((2-(2,6-dioxopiperidin-3-yl)pyridin-4-yl)methyl)piperidin-4-yl)-6-methoxy-2H-indazol-5-yl)-3-(trifluoromethyl)benzamide] | A (A is defined as 0% ≤ substrate protein remaining % ≤ 80%) |
| CC(C)Nc1cc(-n2ccc3cc(C#N)cnc32)ncc1C(=O)NC1CCN(Cc2cncc(C3CCC(=O)NC3=O)c2)CC1 (stereo not shown) [GT-07413, 6-(5-cyano-1H-pyrrolo[2,3-b]pyridin-1-yl)-N-(1-((5-(2,6-dioxopiperidin-3-yl)pyridin-3-yl)methyl)piperidin-4-yl)-4-(isopropylamino)nicotinamide] | A (A is defined as 0% ≤ substrate protein remaining % ≤ 80%) |
| COc1ccc2cn(C3CCN(Cc4ccc(C5CCC(=O)NC5=O)cc4)CC3)nc2c1NC(=O)c1cccc(C(F)(F)F)c1 (stereo not shown) [GT-04813, N-(2-(1-(4-(2,6-dioxopiperidin-3-yl)benzyl)piperidin-4-yl)-6-methoxy-2H-indazol-7-yl)-3-(trifluoromethyl)benzamide] | A (A is defined as 0% ≤ substrate protein remaining % ≤ 80%) |
| CC(C)(O)c1cc2nc(C3CCN(Cc4ccnc(C5CCC(=O)NC5=O)c4)CC3)sc2cc1NC(=O)c1cccc(C(F)(F)F)n1 (stereo not shown) [GT-07622, N-(2-(1-((2-(2,6-dioxopiperidin-3-yl)pyridin-4-yl)methyl)piperidin-4-yl)-5-(2-hydroxypropan-2-yl)benzo[d]thiazol-6-yl)-6-(trifluoromethyl)picolinamide] | A (A is defined as 0% ≤ substrate protein remaining % ≤ 80%) |
| CC(C)Nc1cc(-n2ccc3cc(C#N)cnc32)ncc1C(=O)NC1CCN(Cc2ccc(C3CCC(=O)NC3=O)cn2)CC1 (stereo not shown) [GT-07411, 6-(5-cyano-1H-pyrrolo[2,3-b]pyridin-1-yl)-N-(1-((5-(2,6-dioxopiperidin-3-yl)pyridin-2-yl)methyl)piperidin-4-yl)-4-(isopropylamino)nicotinamide] | A (A is defined as 0% ≤ substrate protein remaining % ≤ 80%) |
| CC(C)Nc1cc(-n2ccc3cc(C#N)cnc32)ncc1C(=O)NC1CCN(Cc2ccnc(N3CCC(=O)NC3=O)c2)CC1 [GT-07409, 6-(5-cyano-1H-pyrrolo[2,3-b]pyridin-1-yl)-N-(1-((2-(2,4-dioxotetrahydropyrimidin-1(2H)-yl)pyridin-4-yl)methyl)piperidin-4-yl)-4-(isopropylamino)nicotinamide] | A (A is defined as 0% ≤ substrate protein remaining % ≤ 80%) |
| COc1cc2nn(C3CCN(Cc4cccc(N5CCC(=O)NC5=O)c4)CC3)cc2cc1NC(=O)c1cccc(C(F)(F)F)n1 [GT-04774, N-(2-(1-(3-(2,4-dioxotetrahydropyrimidin-1(2H)-yl)benzyl)piperidin-4-yl)-6-methoxy-2H-indazol-5-yl)-6-(trifluoromethyl)picolinamide] | A (A is defined as 0% ≤ substrate protein remaining % ≤ 80%) |
| COc1cc2nn(C3CCN(Cc4ccc(N5CCC(=O)NC5=O)cc4F)CC3)cc2cc1NC(=O)c1cccc(C(F)(F)F)c1 [GT-04753, N-(2-(1-(4-(2,4-dioxotetrahydropyrimidin-1(2H)-yl)-2-fluorobenzyl)piperidin-4-yl)-6-methoxy-2H-indazol-5-yl)-3-(trifluoromethyl)benzamide] | A (A is defined as 0% ≤ substrate protein remaining % ≤ 80%) |
| O=C1CCC(Nc2cccc(CN3CCN(c4ccc5c(c4)nc(NC(=O)c4cccc(C(F)(F)F)c4)n5[C@H]4CC[C@@H](CO)CC4)CC3)c2)C(=O)N1 (stereo partly shown) [GT-04985, N-(5-(4-(3-((2,6-dioxopiperidin-3-yl)amino)benzyl)piperazin-1-yl)-1-((1s,4s)-4-(hydroxymethyl)cyclohexyl) -1H-benzo[d]imidazol-2-yl)-3-(trifluoromethyl)benzamide] | A (A is defined as 0% ≤ substrate protein remaining % ≤ 80%) |
| COc1cc2nn(C3CCN(Cc4cccnc4C4CCC(=O)NC4=O)CC3)cc2cc1NC(=O)c1cccc(C(F)(F)F)n1 (stereo not shown) [GT-07550, N-(2-(1-((2-(2,6-dioxopiperidin-3-yl)pyridin-3-yl)methyl)piperidin-4-yl)-6-methoxy-2H-indazol-5-yl)-6-(trifluoromethyl)picolinamide] | A (A is defined as 0% ≤ substrate protein remaining % ≤ 80%) |
| COc1cc2nn(C3CCN(Cc4cc(N5CCC(=O)NC5=O)ncc4F)CC3)cc2cc1NC(=O)c1cccc(C(F)(F)F)c1 [GT-07414, N-(2-(1-((2-(2,4-dioxotetrahydropyrimidin-1(2H)-yl)-5-fluoropyridin-4-yl)methyl)piperidin-4-yl)-6-methoxy-2H-indazol-5-yl)-3-(trifluoromethyl)benzamide] | A (A is defined as 0% ≤ substrate protein remaining % ≤ 80%) |
| COc1cc2nn(C3CCN(Cc4cccc(NC5CCC(=O)NC5=O)c4)CC3)cc2cc1NC(=O)c1cccc(C(F)(F)F)c1 (stereo not shown) [GT-04749, N-(2-(1-(3-((2,6-dioxopiperidin-3-yl)amino)benzyl)piperidin-4-yl)-6-methoxy-2H-indazol-5-yl)-3-(trifluoromethyl)benzamide] | A (A is defined as 0% ≤ substrate protein remaining % ≤ 80%) |
| COc1cc2nn(C3CCN(Cc4ccnc(N5CCC(=O)NC5=O)c4)CC3)cc2cc1NC(=O)c1cccc(C(F)(F)F)n1 [GT-07532, N-(2-(1-((2-(2,4-dioxotetrahydropyrimidin-1(2H)-yl)pyridin-4-yl)methyl)piperidin-4-yl)-6-methoxy-2H-indazol-5-yl)-6-(trifluoromethyl)picolinamide] | A (A is defined as 0% ≤ substrate protein remaining % ≤ 80%) |
